Measured values: US9776972B2, “Pyrazole derivatives as arginine methyltransferase inhibitors and uses thereof” (priority 2013, dated 2017)
Read-outs that look alike come from different tables or passages of the source.

Legend:
[1] = system: mono-methyl arginine in RKO cells; test: RKO Methylation Assay, In Cell Western (ICW) for mono-methyl arginine and DNA content; type: cell-based; details: Homo sapiens, RKO, 72 h
Source text: RKO adherent cells were purchased from ATCC (American Type Culture Collection), Manassas, Va., USA. DMEM/Glutamax medium, penicillin-streptomycin, heat inactivated fetal bovine serum, 0.05% trypsin and D-PBS were purchased from Life Technologies, Grand Island, N.Y., USA. Odyssey blocking buffer, 800CW goat anti-rabbit IgG (H+L) antibody, and Licor Odyssey infrared scanner were purchased from Licor Biosciences, Lincoln, Nebr., USA. Mono-methyl arginine antibody was purchased from Cell Signaling Technology, Danvers, Mass., USA. Methanol was purchased from VWR, Franklin, Mass., USA. 10% Tween 20 was purchased from KPL, Inc., Gaithersburg, Md., USA. DRAQ5 was purchased from Biostatus Limited, Leicestershire, UK.
RKO adherent cells were maintained in growth medium (DMEM/Glutamax medium supplemented with 10% v/v heat inactivated fetal bovine serum and 100 units/mL penicillin-streptomycin) and cultured at 37° C. under 5% CO2.
Cell Treatment, in Cell Western (ICW) for Detection of Mono-Methyl Arginine and DNA Content.
RKO cells were seeded in assay medium at a concentration of 20,000 cells per mL to a poly-D-lysine coated 384 well culture plate (BD Biosciences 356697) with 50 μL per well. Compound (100 nL) from a 96-well source plate was added directly to 384 well cell plate. Plates were incubated at 37° C., 5% CO2 for 72 hours. After three days of incubation, plates were brought to room temperature outside of the incubator for ten minutes and blotted on paper towels to remove cell media. 50 μL of ice cold 100% methanol was added directly to each well and incubated for 30 min at room temperature. After 30 min, plates were transferred to a Biotek EL406 plate washer and washed 2 times with 100 μL per well of wash buffer (1×PBS). Next 60 μL per well of Odyssey blocking buffer (Odyssey Buffer with 0.1% Tween 20 (v/v)) were added to each plate and incubated 1 hour at room temperature. Blocking buffer was removed and 20 μL per well of primary antibody was added (mono-methyl arginine diluted 1:200 in Odyssey buffer with 0.1% Tween 20 (v/v)) and plates were incubated overnight (16 hours) at 4° C. Plates were washed 5 times with 100 μL per well of wash buffer. Next 20 μL per well of secondary antibody was added (1:200 800CW goat anti-rabbit IgG (H+L) antibody, 1:1000 DRAQ5 (Biostatus limited) in Odyssey buffer with 0.1% Tween 20 (v/v)) and incubated for 1 hour at room temperature. The plates were washed 5 times with 100 μL per well wash buffer then 2 times with 100 μL per well of water. Plates were allowed to dry at room temperature then imaged on the Licor Odyssey machine which measures integrated intensity at 700 nm and 800 nm wavelengths. Both 700 and 800 channels were scanned.
First, the ratio for each well was determined by:
Each plate included fourteen control wells of DMSO only treatment (minimum activation) as well as fourteen control wells for maximum activation treated with 20 μM of a reference compound. The average of the ratio values for each control type was calculated and used to determine the percent activation for each test well in the plate. Reference compound was serially diluted three-fold in DMSO for a total of nine test concentrations, beginning at 20 μM. Percent activation was determined and EC30 curves were generated using triplicate wells per concentration of compound.

human PRMT6 = target: T1, human PRMT6 (Homo sapiens, UniProt Q96LA8); test: PRMT6 Biochemical Assay (3H-SAM Flashplate, peptide substrate)
T1 construct: Flag-PRMT6-His; made in house; host or cells: HEK 293F cells (BacMam baculovirus)
T1 sequence (Q96LA8 with tags, fused parts or gaps): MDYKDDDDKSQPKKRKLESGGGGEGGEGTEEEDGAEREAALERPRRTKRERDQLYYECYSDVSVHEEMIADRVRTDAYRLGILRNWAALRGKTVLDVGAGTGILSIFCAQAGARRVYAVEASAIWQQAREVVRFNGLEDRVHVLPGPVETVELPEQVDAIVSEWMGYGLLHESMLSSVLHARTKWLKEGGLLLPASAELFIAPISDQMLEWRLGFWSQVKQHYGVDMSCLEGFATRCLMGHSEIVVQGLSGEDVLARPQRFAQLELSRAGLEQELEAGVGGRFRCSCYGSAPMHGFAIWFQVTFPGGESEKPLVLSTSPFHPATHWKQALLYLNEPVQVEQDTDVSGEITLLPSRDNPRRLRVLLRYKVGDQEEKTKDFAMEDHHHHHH
Source text: (§1) S-adenosylmethionine (SAM), S-adenosylhomocysteine (SAH), bicine, Tween20, dimethylsulfoxide (DMSO), bovine skin gelatin (BSG), sodium butyrate and Tris(2-carboxyethyl)phosphine hydrochloride solution (TCEP) were purchased from Sigma-Aldrich at the highest level of purity possible. ^3H-SAM was purchase from American Radiolabeled Chemicals with a specific activity of 80 Ci/mmol. 384-well streptavidin Flashplates were purchased from PerkinElmer.
Peptide representative of human histone H4 residues 36-50 was synthesized with an N-terminal linker-affinity tag motif and a C-terminal amide cap by 21st Century Biochemicals.
The amplified gene was subcloned into pFastBacMam (Viva Biotech).
Recombinant baculovirus were generated according to Bac-to-Bac kit instructions (Life Technologies). […] Infections were carried out at 37° C. for 48 hours, harvested by centrifugation, and stored at −80° C. for purification.
Column was washed with 20 mM imidazole in the same buffer and Flag-PRMT6-His was eluted with 150 mM imidazole. […] Flag-PRMT6-His was eluted with 200 ug/ml FLAG peptide in the same buffer. Pooled fractions were dialysed in 20 mM Tris, 150 mM NaCl, 10% glycerol and 5 mM β-mercaptoethanol, pH 7.8.
General Procedure for PRMT6 Enzyme Assays on Peptide Substrates.
(§2) The assays were all performed in a buffer consisting of 20 mM Bicine (pH=7.6), 1 mM TCEP, 0.005% BSG, and 0.002% Tween 20, prepared on the day of use. […] DMSO (1 ul) was added to Columns 11, 12, 23, 24, rows A-H for the maximum signal control and 1 ul of SAH, a known product and inhibitor of PRMT6, was added to columns 11, 12, 23, 24, rows I-P for the minimum signal control. A cocktail (40 ul) containing the PRMT6 enzyme was added by Multidrop Combi (Thermo-Fisher). The compounds were allowed to incubate with PRMT6 for 30 min at room temperature, then a cocktail (10 ul) containing SAM and peptide was added to initiate the reaction (final volume=51 ul). […] The assays were stopped by the addition of non-radiolabeled SAM (10 ul) to a final concentration of 400 uM, which dilutes the ^3H-SAM to a level where its incorporation into the peptide substrate is no longer detectable. 50 ul of the reaction in the 384-well polypropylene plate was then transferred to a 384-well Flashplate and the biotinylated peptides were allowed to bind to the streptavidin surface for at least 1 hour before being washed once with 0.1% Tween20 in a Biotek ELx405 plate washer. The plates were then read in a PerkinElmer TopCount plate reader to measure the quantity of ^3H-labeled peptide bound to the Flashplate surface, measured as disintegrations per minute (dpm) or alternatively, referred to as counts per minute (cpm).
(§3) Where dpm=disintegrations per minute, cmpd=signal in assay well, and min and max are the respective minimum and maximum signal controls.
(§4) Where top and bottom are the normally allowed to float, but may be fixed at 100 or 0 respectively in a 3-parameter fit. The Hill Coefficient normally allowed to float but may also be fixed at 1 in a 3-parameter fit. Y is the % inhibition and X is the compound concentration.

human PRMT1 = target: T2, human PRMT1 (Homo sapiens, UniProt Q99873); test: PRMT1 Biochemical Assay (3H-SAM Flashplate, peptide substrate); details: single experiment or average of multiple experiments
T2 construct: GST-tagged PRMT1; made in house; host or cells: High Five insect cells (baculovirus)
T2 sequence (Q99873 with tags, fused parts or gaps): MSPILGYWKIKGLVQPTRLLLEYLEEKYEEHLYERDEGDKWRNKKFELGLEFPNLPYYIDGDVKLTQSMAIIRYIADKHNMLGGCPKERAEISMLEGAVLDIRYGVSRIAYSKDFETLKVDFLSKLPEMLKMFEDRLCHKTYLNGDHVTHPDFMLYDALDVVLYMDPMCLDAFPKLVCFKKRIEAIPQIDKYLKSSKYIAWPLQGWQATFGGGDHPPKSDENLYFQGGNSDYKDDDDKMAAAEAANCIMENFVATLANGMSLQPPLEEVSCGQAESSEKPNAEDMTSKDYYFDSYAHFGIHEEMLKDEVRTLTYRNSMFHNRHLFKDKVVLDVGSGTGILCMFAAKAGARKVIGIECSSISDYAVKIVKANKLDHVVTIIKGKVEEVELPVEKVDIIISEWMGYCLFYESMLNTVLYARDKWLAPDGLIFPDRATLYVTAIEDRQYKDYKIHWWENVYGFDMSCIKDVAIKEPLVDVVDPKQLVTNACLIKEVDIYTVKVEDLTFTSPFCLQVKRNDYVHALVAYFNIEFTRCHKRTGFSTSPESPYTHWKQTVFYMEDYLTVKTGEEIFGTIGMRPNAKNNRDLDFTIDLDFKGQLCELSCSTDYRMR
Source text: as §1, with “(BSG),” for “(BSG), sodium butyrate”
Recombinant baculovirus were generated according to Bac-to-Bac kit instructions (Life Technologies). […] Infections were carried out at 27° C. for 48 hours, harvested by centrifugation, and stored at −80° C. for purification.
GST-tagged PRMT1 was eluted with 50 mM Tris, 2 mM glutathione, pH 7.8, dialysed in buffer A and concentrated to 1 mg/mL.
General Procedure for PRMT1 Enzyme Assays on Peptide Substrates.
as §2, with “PRMT1,” for “PRMT6,”, “PRMT1” for “PRMT6”, “300” for “400”
as §3, §4

[2] = RKO cells, 72 hours, mono-methyl arginine, percent activation, single experiment or average of multiple experiments, read-out: EC30 (In Cell Western data, Numerical)
[3] = Biochemical IC50 PRMT6, single experiment or average of multiple experiments
[4] = single experiment or average of multiple experiments, read-out: Biochemical IC50 PRMT6
[5] = RKO cells, 72 hours, mono-methyl arginine, percent activation, class symbols, read-out: EC30 (In Cell Western data)

`CNCCN(C)Cc1c[nH]nc1-c1ccc(OC(C)C)cc1` [Compound 19, N^1-((3-(4-isopropoxyphenyl)-1H-pyrazol-4-yl)methyl)-N^1,N^2-dimethylethane-1,2-diamine] gave an EC30 [1, 2] of 0.067 µM and an IC50 (human PRMT6; [3]) of 10.6 nM.

With `COCCn1cc(CN(C)CCN(C)C)c(-c2ccc(F)cc2)n1` [Compound 61] the IC50 (human PRMT6; Biochemical IC50 PRMT6) was > 10000 nM and the IC50 (human PRMT6; [3]) was > 10000 nM.

For `COCCn1ncc(CN(C)CCN(C)C)c1-c1ccc(F)cc1` [Compound 64], the IC50 (human PRMT6; [3]) was 1570 nM.

`CN(CCN)Cc1cn(CC(O)CO)nc1-c1ccc(F)cc1` (stereo not drawn) [Compound 76] gave an IC50 (human PRMT1) of 6390 nM and an IC50 (human PRMT6; [3]) of 2730 nM.

`CN(CCN)Cc1cn(CC2COC2)nc1-c1ccc(F)cc1` [Compound 79] was tested, and the EC30 [1, 2] was > 20 µM, the IC50 (human PRMT6; Biochemical IC50 PRMT6) was > 10000 nM and the IC50 (human PRMT6; [3]) was > 10000 nM.

In the case of `CN(CCN)Cc1cnn(CC2COC2)c1-c1ccc(F)cc1` [Compound 80], the EC30 [1, 2] is reported as > 20 µM, the IC50 (human PRMT6; Biochemical IC50 PRMT6) is reported as > 10000 nM and the IC50 (human PRMT6; [3]) is reported as > 10000 nM.

In the case of `CN(CCN)Cc1c(-c2ccc(C#N)cc2)cnn1C` [Compound 84], the IC50 (human PRMT6; Biochemical IC50 PRMT6) is reported as > 10000 nM and the IC50 (human PRMT6; [3]) is reported as > 10000 nM.

With `CN(CCN)Cc1cn(CC2CCOCC2)nc1-c1ccc(F)cc1` [Compound 128] the IC50 (human PRMT1) was 6500 nM and the IC50 (human PRMT6; [3]) was 2370 nM.

In the case of `CN(CCN1CCCC1)Cc1c[nH]nc1-c1ccc(C#N)cc1` [Compound 139], the EC30 [1, 2] is reported as > 20 µM, the IC50 (human PRMT6; Biochemical IC50 PRMT6) is reported as > 10000 nM and the IC50 (human PRMT6; [3]) is reported as > 10000 nM.

Work on `CN(CCN)Cc1c[nH]nc1-c1ccc(OCCCN2CCOCC2)cc1` [Compound 186] yielded an EC30 [1, 2] of 12.8 µM and an IC50 (human PRMT6; [3]) of 13.3 nM.

For `CN(CCN)Cc1c[nH]nc1-c1ccc(N2CCN(C(=O)Cc3ccccc3)CC2)cc1` [Compound 190], the EC30 [1, 2] was 8.39 µM and the IC50 (human PRMT6; [4]) was 20.1 nM.

With `CN(CCN)Cc1c[nH]nc1-c1ccc(Oc2ccccc2)cc1` [Compound 200] the EC30 [1, 2] was 0.596 µM.

In the case of `CNCCN(C)Cc1cn[nH]c1-c1ccc(OC(C)C)c(Cl)c1` [Compound 201], the EC30 [1, 2] is reported as 0.255 µM and the IC50 (human PRMT6; [3]) is reported as 9.24 nM.

With `CNCCN(C)Cc1cnn(C)c1-c1ccc(OC(C)C)c(Cl)c1` [Compound 220, N^1-((5-(3-chloro-4-isopropoxyphenyl)-1-methyl-1H-pyrazol-4-yl)methyl)-N^1,N^2-dimethylethane-1,2-diamine] the EC30 [1, 2] was 0.211 µM and the IC50 (human PRMT6; [4]) was 23.1 nM.

`COCCn1cnc(-c2ccc(C#N)cc2)c1CN(C)CCN` [Compound 223] was tested, and the EC30 [1, 2] was > 20 µM, the IC50 (human PRMT6; Biochemical IC50 PRMT6) was > 10000 nM and the IC50 (human PRMT6; [3]) was > 10000 nM.

With `CNCCN(C)Cc1c[nH]nc1-c1ccc(Oc2ccccc2)c(C#N)c1` [Compound 234] the IC50 (human PRMT1) was 7.75 nM and the IC50 (human PRMT6; [3]) was 4.74 nM.

`CNCCN(C)Cc1c[nH]nc1-c1ccc(Oc2cccc(C(=O)NC)c2)cc1` [Compound 263] was tested, and the IC50 (human PRMT1) was 4.35 nM, the EC30 ([1]; read-out: EC30 (In Cell Western data, Numerical, μM)) was 1.29 µM and the IC50 (human PRMT6; [3]) was 1.92 nM.

`CNCCN(C)Cc1c[nH]nc1-c1ccc(Oc2cccc(C(=O)N(C)C)c2)cc1` [Compound 264] showed an EC30 [1, 2] of 3.52 µM and an IC50 (human PRMT6; [3]) of 3.18 nM.

In the case of `CNCCN(C)Cc1n[nH]cc1-c1ccc(Oc2cccc(C(=O)N(C)C)c2)cc1` [Compound 269], the EC30 [1, 2] is reported as 14.9 µM and the IC50 (human PRMT6; [3]) is reported as 2.73 nM.

`CNCCN(C)Cc1n[nH]cc1-c1ccc(Oc2ccccc2C(=O)NC)cc1` [Compound 278] gave an EC30 [1, 2] of 8.23 µM and an IC50 (human PRMT6; [3]) of 5.17 nM.

For `CCC(CO)Oc1ccc(-c2n[nH]cc2CN(C)CCNC)cc1` (stereo not drawn) [Compound 287], the EC30 [1, 5] was < 3 µM, the EC30 [1, 2] was 0.202 µM and the IC50 (human PRMT6; Biochemical IC50 PRMT6) was < 100 nM. For the same compound, the IC50 (human PRMT6; [4]) was 24.8 nM.

`CCOc1ccc(-c2n[nH]cc2CN(C)CCNC)cc1` [Compound 294] was tested, and the EC30 [1, 5] was < 3 µM, the EC30 [1, 2] was 0.224 µM and the IC50 (human PRMT6; Biochemical IC50 PRMT6) was < 100 nM. The IC50 (human PRMT6; [3]) was 24.6 nM.
